Source: patent US20200347043A1, “MODULATORS OF THE INTEGRATED STRESS PATHWAY” (Calico Life Sciences LLC, priority 2019, published 2020)
pEC50: −log10 of the molar value.

Test system: HEK293T cells carrying the ATF4 luciferase reporter
Test: ATF4-Luc assay (in vitro model of VWMD)
Assay type: cell-based, human
Settings: Homo sapiens, HEK-293T, 1 μg/mL tunicamycin, 7 hours, One Glo luminescence
Protocol: In order to test exemplary compounds of the invention in a cellular context, a stable VWMD cell line was first constructed. The ATF4 reporter was prepared by fusing the human full-length ATF4 5′-UTR (NCBI Accession No. BC022088.2) in front of the firefly luciferase (FLuc) coding sequence lacking the initiator methionine as described in Sidrauski et al (eLife 2013). The construct was used to produce recombinant retroviruses using standard methods and the resulting viral supernatant was used to transduce HEK293T cells, which were then subsequently selected with puromycin to generate a stable cell line.
HEK293T cells carrying the ATF4 luciferase reporter were plated on polylysine coated 384-well plates (Greiner Bio-one) at 30,000 cells per well. Cells were treated the next day with 1 μg/mL tunicamycin and 200 nM of a compound of Formula (I) for 7 hours. Luminescence was measured using One Glo (Promega) as specified by the manufacturer. Cells were maintained in DMEM with L-glutamine supplemented with 10% heat-inactivated FBS (Gibco) and Antibiotic-Antimycotic solution (Gibco).
Table 4 below summarizes the EC50 data obtained using the ATF4-Luc assay for exemplary compounds of the invention.

| Compound | pEC50 |
| --- | --- |
| O=C(NC12CC(Oc3nc([C@H]4C[C@@H](OC(F)(F)F)C4)cs3)(C1)C2)[C@H]1C[C@@H](O)c2cc(Cl)ccc2O1 [Compound 301, (2R,4R)-6-chloro-4-hydroxy-N-[3-({4-[cis-3-(trifluoromethoxy)cyclobutyl]-1,3-thiazol-2-yl}oxy)bicyclo[1.1.1]pentan-1-yl]-3,4-dihydro-2H-1-benzopyran-2-carboxamide] | 5.70 to 6.30 |
| O=C(NC12CC(n3ccc(-c4ccc(Cl)c(F)c4)c3)(C1)C2)[C@H]1C[C@@H](O)c2cc(Cl)ccc2O1 [Compound 242, (2R,4R)-6-chloro-N-{3-[3-(4-chloro-3-fluorophenyl)-1H-pyrrol-1-yl]bicyclo[1.1.1]pentan-1-yl}-4-hydroxy-3,4-dihydro-2H-1-benzopyran-2-carboxamide] | > 8.00 |
| O=C(CO[C@H]1C[C@@H](OC(F)(F)F)C1)NC12CC(NC(=O)[C@H]3C[C@H](O)c4cc(Cl)ccc4O3)(C1)C2 (single isomer, unassigned) [Compound 293] | > 8.00 |
| O=C(N[C@H]1C[C@@H](OC(F)(F)F)C1)[C@H]1C[C@H]2O[C@@H]1C[C@@H]2NC(=O)[C@H]1C[C@@H](O)c2cc(Cl)ccc2O1 (mixture of isomers) [Compound 219, (2R,4R)-6-chloro-4-hydroxy-N-[(1RS,2SR,4RS,5SR)-5-{[cis-3-(trifluoromethoxy)cyclobutyl]carbamoyl}-7-oxabicyclo[2.2.1]heptan-2-yl]-3,4-dihydro-2H-1-benzopyran-2-carboxamide] | 5.70 to 6.30 |
| O=C(N[C@H]1CC[C@H](C(=O)NCc2ccc(C(F)(F)F)cn2)CC1)[C@@H]1C[C@@H](O)c2cc(Cl)ccc2O1 [Compound 172, (2S,4R)-6-chloro-4-hydroxy-N-[trans-4-({[5-(trifluoromethyl)pyridin-2-yl]methyl}carbamoyl)cyclohexyl]-3,4-dihydro-2H-1-benzopyran-2-carboxamide] | 7.30 to 8.00 |
| O=C(CO[C@H]1C[C@@H](OC(F)(F)F)C1)NC12CCC(NC(=O)COc3ccc(Cl)c(F)c3)(CC1)[C@@H](O)C2 [Compound 112, 2-(4-chloro-3-fluorophenoxy)-N-[(2S)-2-hydroxy-4-(2-{[(1s,3R)-3-(trifluoromethoxy)cyclobutyl]oxy}acetamido)bicyclo[2.2.2]octan-1-yl]acetamide] | > 8.00 |
| O=C(NC12CC(n3cnc(-c4ccc(C(F)(F)F)nc4)c3)(C1)C2)[C@@H]1C[C@H](O)c2cc(Cl)ccc2O1 (single isomer, unassigned) [Compound 200] | 6.60 to 7.30 |
| O=C(NC12CC(c3nc(-c4ccc(Cl)c(F)c4)no3)(C1)C2)[C@@H]1C[C@@H](O)c2cc(Cl)ccc2O1 [Compound 230, (2S,4R)-6-chloro-N-{3-[3-(4-chloro-3-fluorophenyl)-1,2,4-oxadiazol-5-yl]bicyclo[1.1.1]pentan-1-yl}-4-hydroxy-3,4-dihydro-2H-1-benzopyran-2-carboxamide] | 6.60 to 7.30 |
| O=C(N[C@H]1C[C@H]2CC[C@@H](C1)N2CCCOc1ccc(Cl)cc1)[C@H]1C[C@@H](O)c2cc(Cl)ccc2O1 [Compound 125, (2R,4R)-6-chloro-N-{(1R,3r,5S)-8-[3-(4-chlorophenoxy)propyl]-8-azabicyclo[3.2.1]octan-3-yl}-4-hydroxy-3,4-dihydro-2H-1-benzopyran-2-carboxamide] | 6.60 to 7.30 |
| O=C(NC12CC(c3nc(-c4ccc(Cl)c(F)c4)no3)(C1)C2)[C@H]1C[C@@H](O)c2cc(Cl)ccc2O1 (single isomer, unassigned) [Compound 202] | > 8.00 |
| O=C(NC12CC(c3ncc(-c4ccc(Cl)c(F)c4)o3)(C1)C2)[C@H]1C[C@@H](O)c2cc(Cl)ccc2O1 [Compound 270, (2R,4R)-6-chloro-N-{3-[5-(4-chloro-3-fluorophenyl)-1,3-oxazol-2-yl]bicyclo[1.1.1]pentan-1-yl}-4-hydroxy-3,4-dihydro-2H-1-benzopyran-2-carboxamide] | > 8.00 |
